Reference: US20240382466A1, “PHARMACEUTICAL COMPOSITION FOR PREVENTING OR TREATING ALZHEIMER’S DISEASE” (priority 2021, published 2024)

How the values were obtained:
[1] = system: mice in a model of Alzheimer's disease; assay: Eight-arm maze behavioral experiment in D-galactose/AlCl3 mouse model of Alzheimer's disease; type: in vivo, Kunming mice; settings: 8 weeks, x ± s, n = 10
Text: A food providing device is arranged at an end of each arm of an eight-arm maze. The spatial memory ability of an experimental animal may be reflected according to the strategy of analyzing feeding of an animal, namely the parameters of the times, time, correct times, wrong times, routes and the like of entering each arm. In contrast, the eight-arm maze is simple, convenient and feasible to operate, can distinguish short-term working memory from long-term reference memory, and is widely used for evaluating a learning and memory cognitive experiment. The main analysis indexes of the eight-arm maze are name, grouping, working memory error latency, reference memory error latency, total correct times, total arm entering times, working memory error times, reference memory error times, correct latency, correct rate, working memory error rate, reference memory error rate, correct times before first error, test time, a track graph and the like. […] 100 SPF-grade Kunming mice, each half male and female, weighed 20-22 g, were provided by the Jinan Pengyue Experimental Animal Breeding Co., Ltd with the animal certificate number: SCXK(Lu)20190003. The mice were bred to freely drink and eat in an SPF-grade animal breeding room with strictly controlled environmental conditions: the temperature of 20-26° C., the humidity of 40-70%, the light and dark cycle of 12 h:12 h, and a growing and breeding feed. All mice were first trained in an eight-arm maze which was a common model for evaluating the learning and memory ability of an animal. The animals were adaptively fed for 1 week, weighed, and fasted for 24 hours. Then after each day of training, the mice were restrictively given a normal diet to maintain the body weight of the mice between 80% and 85% of that of mice fed normally. On the second day, food particles (4-5 particles each arm with the diameter of about 3-4 mm) were sprayed in each arm and a center area of the maze. Then 4 animals were placed in the center of the maze simultaneously (doors to each arm were opened). The animals were freely fed and explored for 10 min. On the third day, the training of the second day was repeated. This process allowed the animals to become familiar with the maze environment without very strong stress. On the fourth day, the animals were trained individually: one food particle was placed in each arm near an outer food box and the animals ate freely. The animals were removed after the food particles were consumed or 10 min later. On the fifth day, the food was placed in the food box and the previous day of training was repeated 2 times a day. After the sixth day, 4 arms were randomly selected and one food particle was placed in each arm; each arm door was closed and the animals were placed in the center of the maze; and after 30s, the arm door was opened, the animals moved freely in the maze and took the food particle until the animals ate the food particles of all 4 arms. If the food particles were not eaten up after 10 min, the experiment was terminated. The animals were trained twice a day with the interval of 1 h or more. […] The mice meeting the learning standard were screened, 10 of them were randomly selected as a normal group, 10 as a model group, and the others as experimental groups. Except that the mice in the normal group were intraperitoneally injected with the same amount of normal saline and intragastrically administrated with the same amount of double distilled water, the mice of the other groups were all intraperitoneally injected with D-galactose (500 mg/kg/D) (prepared with normal saline) and intragastrically administrated AlCl3 (20 mg/kg/D) (prepared with double distilled water). The mice in the experimental groups were intragastrically administrated once a day according to the grouping and administration dose and the mice in the normal group and the model group were intragastrically administrated with the same amount of purified water for 8 weeks successively. […]

[2] = system: mice in a model of Alzheimer's disease; assay: Contents of tryptophan, L-kynurenine and 5-hydroxytryptamine in serum by high performance liquid chromatography; type: in vivo, Kunming mice; settings: 8 weeks, x ± s, n = 10
Description: 100 SPF-grade Kunming mice, each half male and female, weighed 20-22 g, were provided by the Jinan Pengyue Experimental Animal Breeding Co., Ltd with the animal certificate number: SCXK(Lu)20190003. The mice were bred to freely drink and eat in an SPF-grade animal breeding room with strictly controlled environmental conditions: the temperature of 20-26° C., the humidity of 40-70%, the light and dark cycle of 12 h:12 h, and a growing and breeding feed. The mice meeting the learning standard were screened, 10 of them were randomly selected as a normal group, 10 as a model group, and the others as experimental groups. Except that the mice in the normal group were intraperitoneally injected with the same amount of normal saline and intragastrically administrated with the same amount of double distilled water, the mice of the other groups were all intraperitoneally injected with D-galactose (500 mg/kg/D) (prepared with normal saline) and intragastrically administrated AlCl3 (20 mg/kg/D) (prepared with double distilled water). The mice in the experimental groups were intragastrically administrated once a day according to the grouping and administration dose and the mice in the normal group and the model group were intragastrically administrated with the same amount of purified water for 8 weeks successively. The mice in the experimental groups were divided into 8 groups of low- and high-dose anhydroicaritin groups, low- and high-dose compound I groups, and composition A, B, C, and D groups with 10 mice in each group. […] After the last administration, […] of blood was taken from each eyeball of each group of the mice subjected to the eight-arm maze test and stood overnight at 4° C. in a test tube, and a supernatant was taken the following day for later use. The contents of tryptophan, L-kynurenine, and 5-hydroxytryptamine in blood serum were detected by a high performance liquid chromatography.

[3] = system: microglia; settings: Alzheimer's disease inflammation model; cited from earlier work
[4] = system: GSK-3; settings: cited from earlier work
[5] = high-dose anhydroicaritin group, 21.2 mg/(kg·d) intragastric once a day
[6] = low-dose anhydroicaritin group, 3.2 mg/(kg·d) intragastric once a day
[7] = high-dose anhydroicaritin group, 21.2 mg/(kg·d) intragastric
[8] = low-dose anhydroicaritin group, 3.2 mg/(kg·d) intragastric
[9] = high-dose compound I group, 32 mg/(kg·d) intragastric once a day
[10] = low-dose compound I group, 0.6 mg/(kg·d) intragastric once a day
[11] = high-dose compound I group, 32 mg/(kg·d) intragastric
[12] = low-dose compound I group, 0.6 mg/(kg·d) intragastric

With `COc1ccc(-c2oc3c(CC=C(C)C)c(O)cc(O)c3c(=O)c2O)cc1` [anhydroicaritin] the “Average exploration time (s)” value [1, 5] was 189.81 ± 1.19^+ s, the “Reference memory error frequency” value [1, 5] was 0.20 ± 0.04^+ and the “Working memory error frequency” value [1, 5] was 0.44 ± 0.06^+. For the same compound, the “Average exploration time (s)” value [1, 6] was 190.17 ± 1.18^+ s, the “Reference memory error frequency” value [1, 6] was 0.21 ± 0.03^+ and the “Working memory error frequency” value [1, 6] was 0.45 ± 0.02^+. The “5-hydroxytryptamine (μg/ml)” value [2, 7] was 1.30 ± 0.07^+ μg/ml, the “L-kynurenine (μg/ml)” value [2, 7] was 0.33 ± 0.02^+ μg/ml and the “Tryptophan (μg/ml)” value [2, 7] was 17.90 ± 0.30^+ μg/ml. For the same compound, the “5-hydroxytryptamine (μg/ml)” value [2, 8] was 1.29 ± 0.05^+ μg/ml, the “L-kynurenine (μg/ml)” value [2, 8] was 0.33 ± 0.01^+ μg/ml and the “Tryptophan (μg/ml)” value [2, 8] was 17.79 ± 0.65^+ μg/ml.
In the case of `N=C(N)NCCNc1nonc1/C(=N/O)Nc1ccc(F)c(Br)c1` [compound I], the “Average exploration time (s)” value [1, 9] is reported as 189.95 ± 1.04^+ s, the “Reference memory error frequency” value [1, 9] is reported as 0.21 ± 0.04^+ and the “Working memory error frequency” value [1, 9] is reported as 0.44 ± 0.05^+. For the same compound, the “Average exploration time (s)” value [1, 10] was 190.20 ± 1.09^+ s, the “Reference memory error frequency” value [1, 10] was 0.23 ± 0.05^+ and the “Working memory error frequency” value [1, 10] was 0.52 ± 0.03^++. The “5-hydroxytryptamine (μg/ml)” value [2, 11] was 1.28 ± 0.05^+ μg/ml, the “L-kynurenine (μg/ml)” value [2, 11] was 0.33 ± 0.01^+ μg/ml and the “Tryptophan (μg/ml)” value [2, 11] was 18.08 ± 0.02^+ μg/ml. The “5-hydroxytryptamine (μg/ml)” value [2, 12] was 1.29 ± 0.05^+ μg/ml, the “L-kynurenine (μg/ml)” value [2, 12] was 0.35 ± 0.03^+ μg/ml and the “Tryptophan (μg/ml)” value [2, 12] was 17.92 ± 0.95^+ μg/ml.
For `COc1ccc(-c2oc3c(CC=C(C)C)c(O)cc(O)c3c(=O)c2O)cc1` [icaritin], the “activation of microglia induced by LPS” value [3] is given as “inhibit excessive activation of microglia induced by LPS”, the “learning and memory ability of mice” value [3] is given as “improve the learning and memory ability of mice” and the GSK-3 activity [4] is given as “inhibiting GSK-3 activity”.
